Assays:
IKZF1 [1] = biological target: T1, IKZF1 (Homo sapiens, UniProt Q13422+Q96SW2); test: Western blotting of IKZF1 protein level in KMS11 cells; format: cell-based; conditions: for IKZF1 degradation after pretreatment: then 5 μM for 6 h
H929 cells = test: Cell growth inhibition assay in H929 cells; format: cell-based, Human; conditions: 2.5 μM, 8 days
IKZF3 [2] = biological target: T2, IKZF3 (Homo sapiens, UniProt Q96SW2+Q9UKT9); test: Western blotting of IKZF3 protein level in 293FT cells; format: cell-based; conditions: for IKZF3 protein level after pretreatment: 293FT cells, then 5 μM for 6 h
NSD2 [3] = biological target: T3, NSD2 (Homo sapiens, UniProt O96028); test: Western blotting of NSD2 protein level in 293FT cells; format: cell-based
T3 sequence (O96028 1-1365): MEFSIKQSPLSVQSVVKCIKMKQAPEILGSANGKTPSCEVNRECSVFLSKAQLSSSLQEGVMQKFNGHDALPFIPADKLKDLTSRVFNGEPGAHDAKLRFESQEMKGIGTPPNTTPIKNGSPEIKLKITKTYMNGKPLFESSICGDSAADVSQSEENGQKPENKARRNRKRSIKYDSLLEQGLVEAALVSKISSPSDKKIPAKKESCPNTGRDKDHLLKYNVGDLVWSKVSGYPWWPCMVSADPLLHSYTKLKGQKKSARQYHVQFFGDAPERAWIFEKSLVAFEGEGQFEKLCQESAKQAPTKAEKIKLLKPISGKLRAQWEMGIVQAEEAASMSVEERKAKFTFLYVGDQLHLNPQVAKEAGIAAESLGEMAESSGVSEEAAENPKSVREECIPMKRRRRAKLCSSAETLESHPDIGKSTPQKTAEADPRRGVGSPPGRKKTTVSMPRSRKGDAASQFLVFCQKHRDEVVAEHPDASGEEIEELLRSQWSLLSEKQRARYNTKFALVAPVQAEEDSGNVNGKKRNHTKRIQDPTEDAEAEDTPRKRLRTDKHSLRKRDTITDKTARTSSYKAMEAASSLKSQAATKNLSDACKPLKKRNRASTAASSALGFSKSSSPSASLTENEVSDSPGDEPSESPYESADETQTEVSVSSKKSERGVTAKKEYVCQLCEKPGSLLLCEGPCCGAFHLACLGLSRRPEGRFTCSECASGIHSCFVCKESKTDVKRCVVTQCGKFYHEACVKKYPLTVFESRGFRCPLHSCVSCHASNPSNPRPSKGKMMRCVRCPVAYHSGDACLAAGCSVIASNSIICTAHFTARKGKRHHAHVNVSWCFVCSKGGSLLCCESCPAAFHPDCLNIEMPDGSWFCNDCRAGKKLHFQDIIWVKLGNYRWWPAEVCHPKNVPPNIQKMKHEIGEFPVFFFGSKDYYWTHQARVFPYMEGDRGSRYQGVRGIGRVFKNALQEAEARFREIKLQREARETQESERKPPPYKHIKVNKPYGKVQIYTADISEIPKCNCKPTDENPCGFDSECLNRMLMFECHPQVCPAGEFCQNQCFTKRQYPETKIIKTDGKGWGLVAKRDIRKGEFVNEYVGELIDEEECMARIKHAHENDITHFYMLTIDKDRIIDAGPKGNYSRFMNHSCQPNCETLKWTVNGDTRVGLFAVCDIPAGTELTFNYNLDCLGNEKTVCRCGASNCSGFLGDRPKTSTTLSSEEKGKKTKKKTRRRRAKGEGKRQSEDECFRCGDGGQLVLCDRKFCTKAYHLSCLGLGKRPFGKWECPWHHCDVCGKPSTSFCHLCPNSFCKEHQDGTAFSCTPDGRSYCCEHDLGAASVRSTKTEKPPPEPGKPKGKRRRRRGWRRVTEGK

NSD2 [4] = biological target: T3, NSD2; test: Western blotting of NSD2 protein level in H929 cells; format: cell-based; conditions: 2.5 μM, 72 h
KMS11 cells = test: Cell growth inhibition assay in KMS11 cells; format: cell-based, Human; conditions: 2.5 μM, 8 days
GSPT1 [5] = test: Western blotting of GSPT1 protein level in H929 cells; format: cell-based, Human; conditions: 2.5 μM, 72 h
NSD2 [6] = biological target: T3, NSD2; test: Western blotting of NSD2 protein level in CRBN KO 293FT cells; format: cell-based; conditions: 293FT cells with CRISPR-Cas9-mediated KO of CRBN, range of concentrations, 48 h
GSPT1 [7] = test: Western blotting of GSPT1 protein level in KMS11 cells; format: cell-based, Human; conditions: 2.5 μM, 72 h
[8] = system: 20 protein lysine and arginine methyltransferases including NSD1/2/3; test: Selectivity assay, radioisotope-based filter binding; format: biochemical, human; conditions: 10 μM, in duplicate, SAM 1 μM
IKZF1 [9] = biological target: T1, IKZF1; test: Western blotting of IKZF1 protein level in H929 cells; format: cell-based; conditions: 2.5 μM, 72 h
IKZF3 [10] = biological target: T2, IKZF3; test: Western blotting of IKZF3 protein level in KMS11 cells; format: cell-based; conditions: then 5 μM for 6 h
NSD2 [11] = biological target: T3, NSD2; test: Western blotting of NSD2 protein level in KMS11 cells; format: cell-based; conditions: 2.5 μM, 72 h
Mouse PK study = format: in vivo; conditions: single IP 50 mg/kg, male Swiss albino mice
IKZF3 [12] = biological target: T2, IKZF3; test: Western blotting of IKZF3 protein level in CRBN KO 293FT cells; format: cell-based; conditions: 293FT cells with CRISPR-Cas9-mediated KO of CRBN, range of concentrations, 48 h
[13] = pretreated with 10 nM MLN9708 for 2 h
[14] = pretreated with 0.5 μM MLN4924 for 2 h
[15] = WT 293FT cells, range of concentrations, 48 h

T2 sequence (Q9UKT9 whole entry): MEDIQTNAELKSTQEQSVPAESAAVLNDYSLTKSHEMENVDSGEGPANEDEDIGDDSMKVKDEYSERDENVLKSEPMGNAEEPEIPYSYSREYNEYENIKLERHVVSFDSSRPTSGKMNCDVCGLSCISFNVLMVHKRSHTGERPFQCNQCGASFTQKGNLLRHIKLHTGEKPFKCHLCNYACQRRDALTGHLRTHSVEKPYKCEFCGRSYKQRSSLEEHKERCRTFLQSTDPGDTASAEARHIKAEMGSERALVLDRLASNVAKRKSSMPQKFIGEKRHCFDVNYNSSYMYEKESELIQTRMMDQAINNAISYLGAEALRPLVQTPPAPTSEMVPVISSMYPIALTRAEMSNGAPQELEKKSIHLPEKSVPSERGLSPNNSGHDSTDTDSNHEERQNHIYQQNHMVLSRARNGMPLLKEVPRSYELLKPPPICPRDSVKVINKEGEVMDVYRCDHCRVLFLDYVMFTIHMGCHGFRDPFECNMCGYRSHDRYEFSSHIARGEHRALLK
T2 sequence (Q96SW2 whole entry): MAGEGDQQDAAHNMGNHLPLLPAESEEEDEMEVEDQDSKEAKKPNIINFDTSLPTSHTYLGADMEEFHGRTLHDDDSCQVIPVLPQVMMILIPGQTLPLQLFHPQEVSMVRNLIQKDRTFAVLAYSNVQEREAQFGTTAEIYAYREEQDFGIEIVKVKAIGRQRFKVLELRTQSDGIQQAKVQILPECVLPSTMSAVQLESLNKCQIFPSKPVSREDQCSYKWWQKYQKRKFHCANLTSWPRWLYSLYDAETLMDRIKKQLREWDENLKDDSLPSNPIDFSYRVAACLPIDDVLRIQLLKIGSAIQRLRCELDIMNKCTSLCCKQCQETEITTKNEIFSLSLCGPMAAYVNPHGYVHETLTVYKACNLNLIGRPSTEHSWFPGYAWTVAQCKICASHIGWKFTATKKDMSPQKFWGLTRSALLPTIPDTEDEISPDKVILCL
T2 sequence (Q16531 whole entry partner): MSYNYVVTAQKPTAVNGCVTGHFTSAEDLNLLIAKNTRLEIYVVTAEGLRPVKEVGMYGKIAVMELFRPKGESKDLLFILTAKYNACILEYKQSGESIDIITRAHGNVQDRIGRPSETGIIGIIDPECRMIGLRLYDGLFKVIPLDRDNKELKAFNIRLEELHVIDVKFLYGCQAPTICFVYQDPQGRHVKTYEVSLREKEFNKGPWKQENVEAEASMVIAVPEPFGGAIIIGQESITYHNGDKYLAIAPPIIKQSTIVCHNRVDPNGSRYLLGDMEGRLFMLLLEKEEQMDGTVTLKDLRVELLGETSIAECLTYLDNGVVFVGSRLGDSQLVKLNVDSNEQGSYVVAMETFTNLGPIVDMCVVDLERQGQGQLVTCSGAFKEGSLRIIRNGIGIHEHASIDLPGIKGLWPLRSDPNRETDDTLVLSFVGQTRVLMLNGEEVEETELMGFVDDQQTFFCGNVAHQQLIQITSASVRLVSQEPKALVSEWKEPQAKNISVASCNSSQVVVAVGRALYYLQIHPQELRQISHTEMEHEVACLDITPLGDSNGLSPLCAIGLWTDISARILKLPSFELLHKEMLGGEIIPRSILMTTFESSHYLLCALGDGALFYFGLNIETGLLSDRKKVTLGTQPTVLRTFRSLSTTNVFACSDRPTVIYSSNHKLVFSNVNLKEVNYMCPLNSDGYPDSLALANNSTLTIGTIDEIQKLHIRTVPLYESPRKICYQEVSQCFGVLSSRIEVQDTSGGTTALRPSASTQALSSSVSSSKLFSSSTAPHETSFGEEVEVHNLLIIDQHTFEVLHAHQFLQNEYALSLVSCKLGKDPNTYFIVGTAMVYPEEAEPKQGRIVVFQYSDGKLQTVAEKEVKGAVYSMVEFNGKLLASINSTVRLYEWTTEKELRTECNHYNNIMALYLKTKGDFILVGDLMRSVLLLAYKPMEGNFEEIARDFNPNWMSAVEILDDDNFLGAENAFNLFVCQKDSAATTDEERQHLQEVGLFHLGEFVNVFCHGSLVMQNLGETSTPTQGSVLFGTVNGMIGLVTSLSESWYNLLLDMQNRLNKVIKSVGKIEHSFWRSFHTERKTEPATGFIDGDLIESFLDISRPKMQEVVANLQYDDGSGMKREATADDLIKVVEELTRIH
T1 sequence (Q13422 whole entry): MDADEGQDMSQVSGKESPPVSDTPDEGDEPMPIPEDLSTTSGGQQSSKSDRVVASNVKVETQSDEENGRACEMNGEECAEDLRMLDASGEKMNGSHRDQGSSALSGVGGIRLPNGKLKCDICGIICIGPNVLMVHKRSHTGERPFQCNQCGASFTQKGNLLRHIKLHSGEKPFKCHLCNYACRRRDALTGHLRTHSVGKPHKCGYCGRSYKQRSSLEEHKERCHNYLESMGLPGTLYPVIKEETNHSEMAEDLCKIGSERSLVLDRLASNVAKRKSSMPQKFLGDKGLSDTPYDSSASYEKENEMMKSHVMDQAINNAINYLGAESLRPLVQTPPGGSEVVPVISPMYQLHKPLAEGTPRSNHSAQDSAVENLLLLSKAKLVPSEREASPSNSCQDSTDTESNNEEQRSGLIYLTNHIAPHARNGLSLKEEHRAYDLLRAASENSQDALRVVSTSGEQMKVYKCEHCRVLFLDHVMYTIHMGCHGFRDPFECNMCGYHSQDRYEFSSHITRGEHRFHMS
T1 sequence (Q96SW2 whole entry): as the sequence (Q96SW2 whole entry) above
T1 sequence (Q16531 whole entry partner): as the sequence (Q16531 whole entry partner) above

For `O=C(CNc1cccc2c1C(=O)N(C1CCC(=O)NC1=O)C2=O)NCCCOc1ccc(NC(=O)c2ccc(CN(C(=O)c3ccc4c(c3)OCC(=O)N4)C3CC3)cc2)nc1` (stereo not shown) [Compound 9, N-Cyclopropyl-N-(4-((5-(3-(2-((2-(2,6-dioxopiperidin-3-yl)-1,3-dioxoisoindolin-4-yl)amino)acetamido)propoxy)pyridin-2-yl)-carbamoyl)benzyl)-3-oxo-3,4-dihydro-2H-benzo[b][1,4]oxazine-7-carboxamide], the IKZF1 protein level (IKZF1 [1]; 2.5 μM, 72 h) was “clearly reduced the IKZF1 protein level”, the “IKZF1 degradation after pretreatment” value (IKZF1 [1]; [13]) was “at least partially rescued the IKZF1 and IKZF3 degradation” and the “IKZF1 degradation after pretreatment” value (IKZF1 [1]; [14]) was “at least partially rescued the IKZF1 and IKZF3 degradation”. The Cell growth inhibition (H929 cells) was “effectively inhibited the growth”, the “IKZF3 protein level after pretreatment” value (IKZF3 [2]; [13]) was “successfully restored the IKZF3 protein level” and the “IKZF3 protein level after pretreatment” value (IKZF3 [2]; [14]) was “successfully restored the IKZF3 protein level”. The IKZF3 degradation (IKZF3 [2]; [15]) was “clear degradation of NSD2 and IKZF3 was observed”, the “NSD2 protein level on cotreatment” value (NSD2 [3]; 293FT cells, 5 μM for 48 h, cotreated with 5 μM UNC6934 during the last 6 h) was “significantly rescued” and the “NSD2 degradation, time course” value (NSD2 [3]; 293FT cells, 5 μM, 36 h) was “some NSD2 degradation”. The “NSD2 degradation, time course” value (NSD2 [3]; 293FT cells, 5 μM, 48 h) was “significant degradation”, the “NSD2 degradation, time course” value (NSD2 [3]; 293FT cells, 5 μM, 72 h) was “maximum degradation effect” and the “NSD2 protein level after washout” value (NSD2 [3]; 293FT cells, 5 μM, then washout, 48 h post washout) was “fully recovered”. The NSD2 protein level (NSD2 [3]; 293FT cells, 2.5 and 10 μM, 48 h, Figure 2) was “effectively induced degradation of NSD2 at both 2.5 and 10 μM without a hook effect”, the NSD2 degradation (NSD2 [3]; [15]) was “clear degradation of NSD2 and IKZF3 was observed” and the NSD2 degradation (NSD2 [4]) was “effectively degraded NSD2”. The Cell growth inhibition (KMS11 cells) was “effectively inhibited the growth”, the GSPT1 degradation (GSPT1 [5]) was “did not degrade GSPT1” and the NSD2 degradation (NSD2 [6]) was “no NSD2 or IKZF3 degradation was detected”. The GSPT1 degradation (GSPT1 [7]) was “did not degrade GSPT1”, the “Inhibition of 20 methyltransferases (selectivity)” value [8] was “did not inhibit any of the 20 methyltransferases” and the IKZF1 protein level (IKZF1 [9]) was “clearly reduced the IKZF1 protein level”. For the same compound, the “IKZF3 degradation after pretreatment” value (IKZF3 [10]; [13]) was “at least partially rescued the IKZF1 and IKZF3 degradation”, the “IKZF3 degradation after pretreatment” value (IKZF3 [10]; [14]) was “at least partially rescued the IKZF1 and IKZF3 degradation” and the NSD2 degradation (NSD2 [11]) was “effectively degraded NSD2”. The clinical signs (Mouse PK study; PK study) was “no clinical signs were observed”, the tolerability (Mouse PK study; PK study) was “well tolerated” and the maximum plasma concentration (Mouse PK study; mean ± SD from three mice) was 1.35 ± 0.08 µM. The IKZF3 degradation (IKZF3 [12]) was “no NSD2 or IKZF3 degradation was detected”.
